Measurements from PubChem BioAssay AID1963853 (Molecular Pharmacology Branch, DTP, NCI, 2024).

Test system: 266295-075-R-J1-PDC spheroid viability
Assay: Anticancer human tumor 266295-075-R-J1-PDC patient-derived head and neck squamous carcinoma cell line growth inhibition [POLQ]
Settings: spheroids with HUVEC and MSC; for IC50: curve of first compound; for viability, T/C: stronger effect = lower value
How it was run: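 PDC + HUVEC + MSC complex spheroids; POLQ inhibitors ± partner drugs; top conc. at/near clinical Cmax, else 10 microM (SN-38 1 microM), half-log dilutions; 37 degrees C, 5% CO2.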

[1] = second compound 0.0316 µM, first compound 0.0316 µM
[2] = second compound 0.0316 µM, first compound 0.1 µM
[3] = second compound 0.0316 µM, first compound 0.316 µM
[4] = second compound 0.0316 µM, first compound 1 µM
[5] = second compound 0.0316 µM, first compound 3.16 µM
[6] = second compound 0.0316 µM, first compound 10 µM
[7] = second compound 0.1 µM, first compound 0.0316 µM
[8] = second compound 0.1 µM, first compound 0.1 µM
[9] = second compound 0.1 µM, first compound 0.316 µM
[10] = second compound 0.1 µM, first compound 1 µM
[11] = second compound 0.1 µM, first compound 3.16 µM
[12] = second compound 0.1 µM, first compound 10 µM
[13] = second compound 0.316 µM, first compound 0.0316 µM
[14] = second compound 0.316 µM, first compound 0.1 µM
[15] = second compound 0.316 µM, first compound 0.316 µM
[16] = second compound 0.316 µM, first compound 1 µM
[17] = second compound 0.316 µM, first compound 3.16 µM
[18] = second compound 0.316 µM, first compound 10 µM
[19] = second compound 1 µM, first compound 0.0316 µM
[20] = second compound 1 µM, first compound 0.1 µM
[21] = second compound 1 µM, first compound 0.316 µM
[22] = second compound 1 µM, first compound 1 µM
[23] = second compound 1 µM, first compound 3.16 µM
[24] = second compound 1 µM, first compound 10 µM
[25] = second compound 3.16 µM, first compound 0.0316 µM
[26] = second compound 3.16 µM, first compound 0.1 µM
[27] = second compound 3.16 µM, first compound 0.316 µM
[28] = second compound 3.16 µM, first compound 1 µM
[29] = second compound 3.16 µM, first compound 3.16 µM
[30] = second compound 3.16 µM, first compound 10 µM
[31] = second compound 10 µM, first compound 0.0316 µM
[32] = second compound 10 µM, first compound 0.1 µM
[33] = second compound 10 µM, first compound 0.316 µM
[34] = second compound 10 µM, first compound 1 µM
[35] = second compound 10 µM, first compound 3.16 µM
[36] = second compound 10 µM, first compound 10 µM
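Also: spheroids exposed to compounds for seven days before readout.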

In the case of `O=C(Nc1ccc(O)c(NS(=O)(=O)c2ccc(F)cc2)c1)c1ccc(-c2ccccc2)cc1` + COC1C(OC(N)=O)C(O)C(Oc2ccc3c(O)c(NC(=O)c4ccc(O)c(CC=C(C)C)c4)c(=O)oc3c2C)OC1(C)C, the IC50 (second compound 0.0316 µM) is reported as > 10 µM, the IC50 (second compound 0.1 µM) is reported as > 10 µM and the IC50 (second compound 0.316 µM) is reported as > 10 µM. The IC50 (second compound 1 µM) was > 10 µM, the IC50 (second compound 3.16 µM) was > 10 µM and the IC50 (second compound 10 µM) was > 10 µM. The viability, T/C [1] was 93.7%, the viability, T/C [2] was 96.6% and the viability, T/C [3] was 110%. The viability, T/C [4] was 110%, the viability, T/C [5] was 128% and the viability, T/C [6] was 113%. For the same compound, the viability, T/C [7] was 112%, the viability, T/C [8] was 87.2% and the viability, T/C [9] was 109%. It also gave a viability, T/C [10] of 112%, a viability, T/C [11] of 145% and a viability, T/C [12] of 107%. The viability, T/C [13] was 101%, the viability, T/C [14] was 102% and the viability, T/C [15] was 116%. The viability, T/C [16] was 104%, the viability, T/C [17] was 120% and the viability, T/C [18] was 103%. The viability, T/C [19] was 111%, the viability, T/C [20] was 105% and the viability, T/C [21] was 99.7%. The viability, T/C [22] was 112%, the viability, T/C [23] was 130% and the viability, T/C [24] was 112%. For the same compound, the viability, T/C [25] was 115%, the viability, T/C [26] was 96.6% and the viability, T/C [27] was 101%. For the same compound, the viability, T/C [28] was 119%, the viability, T/C [29] was 136% and the viability, T/C [30] was 104%. The viability, T/C [31] was 115%, the viability, T/C [32] was 94.8% and the viability, T/C [33] was 110%. For the same compound, the viability, T/C [34] was 100%, the viability, T/C [35] was 130% and the viability, T/C [36] was 103%.

With `O=c1[nH]cc(F)c(=O)[nH]1` + COC1C(OC(N)=O)C(O)C(Oc2ccc3c(O)c(NC(=O)c4ccc(O)c(CC=C(C)C)c4)c(=O)oc3c2C)OC1(C)C the IC50 (second compound 0.0316 µM) was > 10 µM, the IC50 (second compound 0.1 µM) was > 10 µM and the IC50 (second compound 0.316 µM) was > 10 µM. The IC50 (second compound 1 µM) was > 10 µM, the IC50 (second compound 3.16 µM) was > 10 µM and the IC50 (second compound 10 µM) was > 10 µM. The viability, T/C [1] was 103%, the viability, T/C [2] was 86.2% and the viability, T/C [3] was 93.1%. For the same compound, the viability, T/C [4] was 107%, the viability, T/C [5] was 96.1% and the viability, T/C [6] was 100%. For the same compound, the viability, T/C [7] was 106%, the viability, T/C [8] was 110% and the viability, T/C [9] was 86.8%. For the same compound, the viability, T/C [10] was 93.6%, the viability, T/C [11] was 89% and the viability, T/C [12] was 103%. It also gave a viability, T/C [13] of 103%, a viability, T/C [14] of 106% and a viability, T/C [15] of 97.3%. For the same compound, the viability, T/C [16] was 97.3%, the viability, T/C [17] was 91.7% and the viability, T/C [18] was 89%. It also gave a viability, T/C [19] of 94.2%, a viability, T/C [20] of 122% and a viability, T/C [21] of 93.2%. It also gave a viability, T/C [22] of 111%, a viability, T/C [23] of 90.6% and a viability, T/C [24] of 89.9%. For the same compound, the viability, T/C [25] was 112%, the viability, T/C [26] was 93.5% and the viability, T/C [27] was 108%. For the same compound, the viability, T/C [28] was 97.8%, the viability, T/C [29] was 105% and the viability, T/C [30] was 90.5%. The viability, T/C [31] was 102%, the viability, T/C [32] was 103% and the viability, T/C [33] was 96.2%. For the same compound, the viability, T/C [34] was 103%, the viability, T/C [35] was 98.7% and the viability, T/C [36] was 78.9%.

In the case of `O=C(Nc1ccc(O)c(NS(=O)(=O)c2ccc(F)cc2)c1)c1ccc(-c2ccccc2)cc1` + Cc1cccc(N(C)C(=O)C2C(O)CCN2c2nc(C)cc(C(F)(F)F)c2C#N)c1, the IC50 (second compound 0.0316 µM) is reported as > 10 µM, the IC50 (second compound 0.1 µM) is reported as > 10 µM and the IC50 (second compound 0.316 µM) is reported as > 10 µM. For the same compound, the IC50 (second compound 1 µM) was > 10 µM, the IC50 (second compound 3.16 µM) was > 10 µM and the IC50 (second compound 10 µM) was > 10 µM. The viability, T/C [1] was 96.1%, the viability, T/C [2] was 104% and the viability, T/C [3] was 125%. For the same compound, the viability, T/C [4] was 139%, the viability, T/C [5] was 144% and the viability, T/C [6] was 103%. It also gave a viability, T/C [7] of 118%, a viability, T/C [8] of 104% and a viability, T/C [9] of 124%. The viability, T/C [10] was 110%, the viability, T/C [11] was 123% and the viability, T/C [12] was 97.7%. It also gave a viability, T/C [13] of 107%, a viability, T/C [14] of 87.6% and a viability, T/C [15] of 76.6%. The viability, T/C [16] was 95.2%, the viability, T/C [17] was 146% and the viability, T/C [18] was 88.3%. The viability, T/C [19] was 102%, the viability, T/C [20] was 97% and the viability, T/C [21] was 103%. It also gave a viability, T/C [22] of 129%, a viability, T/C [23] of 114% and a viability, T/C [24] of 85.5%. It also gave a viability, T/C [25] of 136%, a viability, T/C [26] of 94.5% and a viability, T/C [27] of 110%. For the same compound, the viability, T/C [28] was 136%, the viability, T/C [29] was 127% and the viability, T/C [30] was 103%. For the same compound, the viability, T/C [31] was 108%, the viability, T/C [32] was 113% and the viability, T/C [33] was 113%. It also gave a viability, T/C [34] of 108%, a viability, T/C [35] of 142% and a viability, T/C [36] of 97.2%.

For `C#Cc1c(F)ccc2cc(O)cc(-c3ncc4c(N5CC6CCC(C5)N6)nc(OCC56CCCN5CC(F)C6)nc4c3F)c12` (stereo not drawn) + Cc1cccc(N(C)C(=O)C2C(O)CCN2c2nc(C)cc(C(F)(F)F)c2C#N)c1, the IC50 (second compound 0.0316 µM) was > 10 µM, the IC50 (second compound 0.1 µM) was > 10 µM and the IC50 (second compound 0.316 µM) was > 10 µM. For the same compound, the IC50 (second compound 1 µM) was > 10 µM, the IC50 (second compound 3.16 µM) was 6.48 µM and the IC50 (second compound 10 µM) was > 10 µM. For the same compound, the viability, T/C [1] was 91.9%, the viability, T/C [2] was 76.7% and the viability, T/C [3] was 82.8%. The viability, T/C [4] was 66.8%, the viability, T/C [5] was 66.7% and the viability, T/C [6] was 57%. It also gave a viability, T/C [7] of 111%, a viability, T/C [8] of 94.1% and a viability, T/C [9] of 70%. It also gave a viability, T/C [10] of 62.8%, a viability, T/C [11] of 59.6% and a viability, T/C [12] of 55.7%. It also gave a viability, T/C [13] of 102%, a viability, T/C [14] of 87.4% and a viability, T/C [15] of 78.6%. It also gave a viability, T/C [16] of 70.6%, a viability, T/C [17] of 70.9% and a viability, T/C [18] of 58.8%. It also gave a viability, T/C [19] of 90.3%, a viability, T/C [20] of 93.1% and a viability, T/C [21] of 75.5%. The viability, T/C [22] was 67.3%, the viability, T/C [23] was 67.8% and the viability, T/C [24] was 57.8%. The viability, T/C [25] was 154%, the viability, T/C [26] was 83.7% and the viability, T/C [27] was 76.9%. The viability, T/C [28] was 65.1%, the viability, T/C [29] was 66.6% and the viability, T/C [30] was 55.6%. The viability, T/C [31] was 84.5%, the viability, T/C [32] was 91.9% and the viability, T/C [33] was 82.9%. It also gave a viability, T/C [34] of 63.2%, a viability, T/C [35] of 65.7% and a viability, T/C [36] of 85%.
